biological target: T1, C-C chemokine receptor type 1 (Homo sapiens, UniProt P32246); test: Compound was tested for inhibition of CCL3 binding to chemokine receptor-1; inactive at a concentration of 32 uM
T1 sequence (P32246 whole entry): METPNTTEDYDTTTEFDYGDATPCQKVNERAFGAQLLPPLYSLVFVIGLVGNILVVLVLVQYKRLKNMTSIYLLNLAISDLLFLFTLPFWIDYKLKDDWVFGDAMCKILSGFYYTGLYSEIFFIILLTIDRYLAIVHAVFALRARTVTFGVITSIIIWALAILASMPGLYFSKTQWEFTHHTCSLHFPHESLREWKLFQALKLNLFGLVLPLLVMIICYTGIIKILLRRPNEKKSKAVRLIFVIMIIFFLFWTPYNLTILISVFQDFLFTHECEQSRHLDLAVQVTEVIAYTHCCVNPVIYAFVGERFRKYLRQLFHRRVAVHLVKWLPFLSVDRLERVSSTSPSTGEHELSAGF

IC50 | Structure (SMILES)
< 50 µM | CNC(=O)CC[C@H](O)[C@H](CC1CCCCC1)NC(=O)c1cnc2ccccc2c1
< 50 µM | CNC(=O)[C@@H](CC(C)C)C[C@@H](O)[C@H](CC1CCCCC1)NC(=O)c1cnc2ccccc2c1
< 50 µM | CC[C@H](C)[C@H](NC(=O)c1cnc2ccccc2c1)[C@@H](O)C[C@@H](CC(C)C)C(=O)NC
< 50 µM | CNC(=O)[C@H](CC(C)C)C[C@@H](O)[C@H](CC1CCCCC1)NC(=O)c1cnc2ccccc2c1
< 50 µM | CNC(=O)[C@H](CC(C)C)C[C@@H](O)[C@@H](CC1CCCCC1)NC(=O)c1cnc2ccccc2c1
< 50 µM | CNC(=O)[C@@H](CC(C)C)C[C@H](O)[C@@H](CC1CCCCC1)NC(=O)c1cnc2ccccc2c1

— BindingDB's records for doi:10.1016/j.bmcl.2004.02.020 (Pfizer, 2004)
